Our source for the remaining binding values is US12479847B2 (DANA-FARBER CANCER INSTITUTE, INC., priority 2019, dated 2025).

What all share (assay): KINOMEscan (ScanMAX) kinase profiling
Common to all, as to assay type: binding

The target of test [1] is T1, panel of 468 kinases (Homo sapiens, UniProt P00519, F317I).
T1 construct: purchased KINOMEscan (ScanMAX) service
Conditions: 1 μM, read-out: % control.

The target in test [2] is T2, panel of 468 kinases (Homo sapiens, UniProt P16591).
T2 construct: purchased KINOMEscan (ScanMAX) service
Conditions: FER; 1 μM; read-out: % control.

In test [3] the target is T3, panel of 468 kinases (Homo sapiens, UniProt P21127).
T3 construct: purchased KINOMEscan (ScanMAX) service
To be noted: CDC2L1; 1 μM; read-out: % control.

Test [4] concerns the target T4, panel of 468 kinases (Homo sapiens, UniProt P42336, H1047L).
T4 construct: purchased KINOMEscan (ScanMAX) service
Conditions: PIK3CA(H1047L); 1 μM; read-out: % control.

The target in test [5] is T5, panel of 468 kinases (Homo sapiens, UniProt Q13976).
T5 construct: purchased KINOMEscan (ScanMAX) service
T5 sequence (Q13976 1-671): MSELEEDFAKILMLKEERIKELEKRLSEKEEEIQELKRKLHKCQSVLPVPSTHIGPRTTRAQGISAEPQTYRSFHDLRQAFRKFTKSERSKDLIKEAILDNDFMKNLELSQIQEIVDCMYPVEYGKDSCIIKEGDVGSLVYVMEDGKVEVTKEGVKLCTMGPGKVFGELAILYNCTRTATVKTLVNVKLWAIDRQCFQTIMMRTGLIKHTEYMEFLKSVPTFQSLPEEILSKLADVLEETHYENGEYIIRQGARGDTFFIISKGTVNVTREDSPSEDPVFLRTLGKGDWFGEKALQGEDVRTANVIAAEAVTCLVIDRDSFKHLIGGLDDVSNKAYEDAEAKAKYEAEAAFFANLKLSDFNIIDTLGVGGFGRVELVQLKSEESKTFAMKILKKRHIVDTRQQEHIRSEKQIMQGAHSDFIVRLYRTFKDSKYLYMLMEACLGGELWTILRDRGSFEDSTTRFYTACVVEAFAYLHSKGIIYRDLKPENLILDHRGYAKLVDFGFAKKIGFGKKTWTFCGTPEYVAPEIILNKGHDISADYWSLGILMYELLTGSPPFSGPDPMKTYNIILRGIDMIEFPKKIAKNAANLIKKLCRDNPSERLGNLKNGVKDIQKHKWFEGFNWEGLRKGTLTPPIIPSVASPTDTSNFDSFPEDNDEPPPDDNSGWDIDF
Conditions: PRKG1; 1 μM; read-out: % control.

In test [6] the target is T6, panel of 468 kinases (Homo sapiens, UniProt Q9UF33).
T6 construct: purchased KINOMEscan (ScanMAX) service
T6 sequence (Q9UF33 23-1036): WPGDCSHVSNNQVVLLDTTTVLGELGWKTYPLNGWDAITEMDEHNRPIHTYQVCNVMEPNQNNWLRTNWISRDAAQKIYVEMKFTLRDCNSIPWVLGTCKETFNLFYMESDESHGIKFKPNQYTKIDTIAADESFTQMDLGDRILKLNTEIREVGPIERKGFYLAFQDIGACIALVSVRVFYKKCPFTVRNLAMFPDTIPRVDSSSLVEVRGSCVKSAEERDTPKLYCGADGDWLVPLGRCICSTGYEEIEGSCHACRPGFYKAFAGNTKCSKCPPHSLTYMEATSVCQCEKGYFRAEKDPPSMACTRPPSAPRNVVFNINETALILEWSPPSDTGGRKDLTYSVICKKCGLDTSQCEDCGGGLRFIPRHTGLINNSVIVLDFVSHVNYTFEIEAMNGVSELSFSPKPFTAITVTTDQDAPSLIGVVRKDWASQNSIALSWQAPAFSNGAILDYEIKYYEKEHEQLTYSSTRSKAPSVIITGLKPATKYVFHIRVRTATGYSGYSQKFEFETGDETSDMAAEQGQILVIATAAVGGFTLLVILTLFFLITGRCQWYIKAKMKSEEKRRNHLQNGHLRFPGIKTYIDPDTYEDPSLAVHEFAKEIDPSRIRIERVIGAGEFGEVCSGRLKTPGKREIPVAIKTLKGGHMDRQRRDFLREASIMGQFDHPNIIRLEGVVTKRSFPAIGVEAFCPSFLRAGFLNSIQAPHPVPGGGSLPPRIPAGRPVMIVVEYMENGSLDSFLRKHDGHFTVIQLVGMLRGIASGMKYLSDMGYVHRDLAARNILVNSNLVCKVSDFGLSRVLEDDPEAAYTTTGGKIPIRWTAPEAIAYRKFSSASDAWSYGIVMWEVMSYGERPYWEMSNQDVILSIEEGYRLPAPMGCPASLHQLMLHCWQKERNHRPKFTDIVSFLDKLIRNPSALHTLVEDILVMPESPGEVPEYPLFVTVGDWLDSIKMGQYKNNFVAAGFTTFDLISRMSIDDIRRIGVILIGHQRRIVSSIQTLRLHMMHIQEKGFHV
Conditions: EPHA6; 1 μM; read-out: % control.

Like-named read-outs stand apart in the source and are kept apart here.

T2 sequence (P16591 whole entry): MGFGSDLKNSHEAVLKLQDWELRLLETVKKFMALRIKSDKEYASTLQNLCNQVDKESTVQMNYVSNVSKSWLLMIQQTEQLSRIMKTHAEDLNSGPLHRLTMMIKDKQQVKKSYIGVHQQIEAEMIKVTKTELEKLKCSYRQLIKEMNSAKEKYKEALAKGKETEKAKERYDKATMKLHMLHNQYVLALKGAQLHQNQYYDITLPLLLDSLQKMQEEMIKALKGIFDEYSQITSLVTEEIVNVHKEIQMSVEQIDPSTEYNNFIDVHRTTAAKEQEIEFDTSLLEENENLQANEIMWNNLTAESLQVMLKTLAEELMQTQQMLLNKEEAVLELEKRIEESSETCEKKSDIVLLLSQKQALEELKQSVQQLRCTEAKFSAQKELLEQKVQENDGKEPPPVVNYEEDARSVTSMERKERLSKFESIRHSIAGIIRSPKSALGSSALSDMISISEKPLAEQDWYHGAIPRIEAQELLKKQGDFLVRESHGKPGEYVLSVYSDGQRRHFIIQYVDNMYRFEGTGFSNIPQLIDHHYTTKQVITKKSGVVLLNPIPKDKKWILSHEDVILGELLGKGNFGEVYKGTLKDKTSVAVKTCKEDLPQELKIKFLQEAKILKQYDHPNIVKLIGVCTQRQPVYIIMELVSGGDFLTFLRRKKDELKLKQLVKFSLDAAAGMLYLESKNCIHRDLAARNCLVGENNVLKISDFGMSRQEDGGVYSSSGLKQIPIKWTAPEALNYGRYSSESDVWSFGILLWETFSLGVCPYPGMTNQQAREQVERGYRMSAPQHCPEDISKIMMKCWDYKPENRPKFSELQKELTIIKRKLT
T1 sequence (P00519 whole entry F317I): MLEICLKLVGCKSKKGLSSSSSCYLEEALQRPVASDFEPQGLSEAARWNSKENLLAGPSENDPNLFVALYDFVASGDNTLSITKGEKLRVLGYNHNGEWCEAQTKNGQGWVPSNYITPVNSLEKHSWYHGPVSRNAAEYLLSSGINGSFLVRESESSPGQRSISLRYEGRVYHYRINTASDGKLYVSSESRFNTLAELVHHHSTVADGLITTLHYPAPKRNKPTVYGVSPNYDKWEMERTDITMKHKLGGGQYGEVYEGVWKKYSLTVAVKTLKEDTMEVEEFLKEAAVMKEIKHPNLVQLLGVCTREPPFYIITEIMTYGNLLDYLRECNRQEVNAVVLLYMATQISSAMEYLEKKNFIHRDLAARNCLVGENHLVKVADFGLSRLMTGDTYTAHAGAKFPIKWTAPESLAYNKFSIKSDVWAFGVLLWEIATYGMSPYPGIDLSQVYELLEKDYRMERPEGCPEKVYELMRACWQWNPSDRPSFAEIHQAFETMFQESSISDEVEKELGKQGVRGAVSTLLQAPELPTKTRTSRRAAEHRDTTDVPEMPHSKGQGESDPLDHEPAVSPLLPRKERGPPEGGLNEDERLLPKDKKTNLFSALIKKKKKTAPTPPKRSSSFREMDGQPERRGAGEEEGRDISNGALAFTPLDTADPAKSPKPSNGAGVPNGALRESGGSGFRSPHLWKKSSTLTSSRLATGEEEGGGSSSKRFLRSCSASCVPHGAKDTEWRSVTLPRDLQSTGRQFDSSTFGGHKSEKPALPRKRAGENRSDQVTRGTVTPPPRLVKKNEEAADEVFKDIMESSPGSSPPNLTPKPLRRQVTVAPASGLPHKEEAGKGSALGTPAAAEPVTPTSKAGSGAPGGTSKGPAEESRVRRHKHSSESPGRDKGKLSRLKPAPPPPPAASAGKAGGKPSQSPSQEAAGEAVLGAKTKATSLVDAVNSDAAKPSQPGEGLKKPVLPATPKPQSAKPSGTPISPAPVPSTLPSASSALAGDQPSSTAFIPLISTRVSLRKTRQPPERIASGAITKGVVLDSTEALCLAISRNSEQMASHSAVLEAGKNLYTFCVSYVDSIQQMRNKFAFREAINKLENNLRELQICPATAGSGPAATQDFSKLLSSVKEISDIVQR
T4 sequence (P42336 whole entry H1047L): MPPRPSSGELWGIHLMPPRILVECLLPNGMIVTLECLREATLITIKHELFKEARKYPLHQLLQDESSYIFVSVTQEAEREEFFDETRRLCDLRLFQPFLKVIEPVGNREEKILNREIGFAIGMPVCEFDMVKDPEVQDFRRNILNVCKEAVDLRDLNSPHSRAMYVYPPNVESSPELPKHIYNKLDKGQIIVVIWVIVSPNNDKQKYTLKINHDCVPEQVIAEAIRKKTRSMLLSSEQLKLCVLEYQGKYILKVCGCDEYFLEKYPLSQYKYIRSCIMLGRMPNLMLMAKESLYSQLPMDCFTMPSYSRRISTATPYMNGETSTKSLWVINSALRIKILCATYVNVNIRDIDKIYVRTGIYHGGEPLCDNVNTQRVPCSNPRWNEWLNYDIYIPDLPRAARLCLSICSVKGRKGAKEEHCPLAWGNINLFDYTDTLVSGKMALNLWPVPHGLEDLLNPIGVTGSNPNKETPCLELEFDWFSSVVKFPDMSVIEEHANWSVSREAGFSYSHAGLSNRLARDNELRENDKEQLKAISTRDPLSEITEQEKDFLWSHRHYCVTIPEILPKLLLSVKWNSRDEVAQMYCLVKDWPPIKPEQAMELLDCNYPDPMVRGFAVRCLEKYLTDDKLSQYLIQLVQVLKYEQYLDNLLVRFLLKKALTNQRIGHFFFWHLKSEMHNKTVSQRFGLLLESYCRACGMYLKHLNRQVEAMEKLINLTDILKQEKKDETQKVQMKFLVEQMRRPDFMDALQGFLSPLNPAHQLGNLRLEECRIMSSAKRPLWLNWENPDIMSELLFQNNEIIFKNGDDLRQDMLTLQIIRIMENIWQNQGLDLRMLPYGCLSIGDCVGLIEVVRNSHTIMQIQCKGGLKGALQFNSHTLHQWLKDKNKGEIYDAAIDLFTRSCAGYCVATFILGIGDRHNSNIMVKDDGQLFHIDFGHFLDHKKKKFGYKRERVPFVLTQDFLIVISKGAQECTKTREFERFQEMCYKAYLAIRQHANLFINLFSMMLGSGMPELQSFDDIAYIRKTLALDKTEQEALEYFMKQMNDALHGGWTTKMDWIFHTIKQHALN
T3 sequence (P21127 whole entry): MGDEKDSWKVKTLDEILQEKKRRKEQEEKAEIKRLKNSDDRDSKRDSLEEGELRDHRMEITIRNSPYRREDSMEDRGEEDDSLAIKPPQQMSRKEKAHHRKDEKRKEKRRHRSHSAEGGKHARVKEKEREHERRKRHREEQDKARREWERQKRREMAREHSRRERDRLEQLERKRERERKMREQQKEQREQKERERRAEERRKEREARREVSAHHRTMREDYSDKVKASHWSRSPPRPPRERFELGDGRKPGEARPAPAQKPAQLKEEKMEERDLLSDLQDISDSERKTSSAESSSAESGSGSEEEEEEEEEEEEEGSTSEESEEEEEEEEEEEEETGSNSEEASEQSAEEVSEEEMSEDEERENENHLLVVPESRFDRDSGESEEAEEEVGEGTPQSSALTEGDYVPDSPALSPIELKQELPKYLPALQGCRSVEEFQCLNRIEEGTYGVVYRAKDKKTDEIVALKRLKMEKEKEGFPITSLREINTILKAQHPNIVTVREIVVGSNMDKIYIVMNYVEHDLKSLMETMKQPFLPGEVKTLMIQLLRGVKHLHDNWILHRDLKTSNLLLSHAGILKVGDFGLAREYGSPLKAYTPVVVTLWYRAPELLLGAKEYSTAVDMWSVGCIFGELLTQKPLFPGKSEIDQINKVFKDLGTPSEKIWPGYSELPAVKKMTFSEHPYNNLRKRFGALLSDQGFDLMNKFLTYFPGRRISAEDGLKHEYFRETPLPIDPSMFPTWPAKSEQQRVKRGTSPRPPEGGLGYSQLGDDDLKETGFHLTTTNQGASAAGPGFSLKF

Take `CNc1nc(Nc2ccc(S(=O)(=O)N3CCC(N4CCOCC4)CC3)cc2OC)nc2[nH]cc(Cl)c12` [Compound 12, 5-chloro-N2-(2-methoxy-4-((4-morpholinopiperidin-1-yl)sulfonyl)phenyl)-N4-methyl-7H-pyrrolo[2,3-d]pyrimidine-2,4-diamine]: the remaining binding at 1 µM came to 100% on panel of 468 kinases [1] (ABL1(F317I)-nonphosphorylated); 54% at panel of 468 kinases [1] (ABL1(F317I)-phosphorylated); 44% on panel of 468 kinases [2]; 100% on panel of 468 kinases [3]; 56% on panel of 468 kinases [4]; 100% on panel of 468 kinases [5]. The remaining binding at 1 µM at panel of 468 kinases [6] is 100%.
As to `CNc1nc(Nc2ccc(P3(=O)CCN(C4CCOCC4)CC3)cc2OC)nc2[nH]cc(Cl)c12` [Compound 77, 4-(4-((5-chloro-4-(methylamino)-7H-pyrrolo[2,3-d]pyrimidin-2-yl)amino)-3-methoxyphenyl)-1-(tetrahydro-2H-pyran-4-yl)-1,4-azaphosphinane 4-oxide], the remaining binding at 1 µM was found to be 100% on panel of 468 kinases [1] (ABL1(F317I)-nonphosphorylated); 51% at panel of 468 kinases [1] (ABL1(F317I)-phosphorylated); 20% on panel of 468 kinases [2]; 100% at panel of 468 kinases [3]; 61% at panel of 468 kinases [4]; 100% on panel of 468 kinases [5]. The remaining binding at 1 µM on panel of 468 kinases [6] was found to be 100%.
Take `CNc1nc(Nc2ccc(C(=O)N3CCC(N4CCOCC4)CC3)c3c2OCO3)nc2[nH]cc(Cl)c12` [Compound 75, (7-((5-chloro-4-(methylamino)-7H-pyrrolo[2,3-d]pyrimidin-2-yl)amino)benzo[d][1,3]dioxol-4-yl)(4-morpholinopiperidin-1-yl)methanone]: the remaining binding at 1 µM turned out to be 100% at panel of 468 kinases [1] (ABL1(F317I)-nonphosphorylated); 83% at panel of 468 kinases [1] (ABL1(F317I)-phosphorylated); 56% on panel of 468 kinases [2]; 100% on panel of 468 kinases [3]; 86% at panel of 468 kinases [4]; 100% on panel of 468 kinases [5]. On panel of 468 kinases [6], the remaining binding at 1 µM was 100%.
